{"source": "patent EP4772186A1", "about": "“USE AND COMPOSITION OF POSTBIOTIC OF LACTOBACILLUS PARACASEI ET-22” (Inner Mongolia Yili Industrial Group Co., Ltd., priority 2023, dated 2025)", "key": {"biofilm": {"test_system": "biofilm", "assay": "scanning electron microscopy (SEM) of biofilm on HA disc", "format": "cell-based, halitosis subjects (saliva)", "details": "pure components 100 µg/ml, others from 1.0×10^9 CFU/ml, 37°C 10 hours", "method": "(§1) Lysate group: A hydroxyapatite (HA) disc was placed in a 96-well plate. 10 µl of saliva was added to the 96-well plate, followed by separate addition of ET-22 viable bacteria (1.0×10^9 CFU/ml), ET-22 heat-inactivated bacterial cells (obtained by inactivating viable bacteria at 1.0×10^9 CFU/ml), and lysate (obtained by inactivating and filtering viable bacteria at 1.0×10^9 CFU/ml), each at 10 µl. Then, 80 µl of SHI medium was added. The 96-well plate was placed in an anaerobic box and cultured anaerobically at 37°C for 10 hours.\nas §1, with “NAD” for “Lysate”, “heat-inactivating” for “inactivating”, “NAD (100 µg/ml),” for “lysate (obtained by inactivating and filtering viable bacteria at 1.0×10^9 CFU/ml),”\n2-hydroxy-3-phenylpropionic acid group: A hydroxyapatite (HA) disc was placed in a 96-well plate. 10 µl of saliva was added to the 96-well plate, followed by separate addition of ET-22 viable bacteria (1.0×10^9 CFU/ml), ET-22 heat-inactivated bacterial cells (obtained by heat-inactivating viable bacteria at 1.0×10^9 CFU/ml), and 2-hydroxy-3-phenylpropionic acid (100 µg/ml), each at 10 µl. […]"}, "VSC concentration": {"test_system": "VSC concentration", "assay": "in vitro Halimeter determination of VSC concentration in saliva fermentation", "format": "cell-based, halitosis subjects (saliva)", "details": "compared with CK group, anaerobic cultivation 10 hours", "method": "Fresh saliva was collected from 10 halitosis subjects (Halimeter index >120). Subjects were required not to consume any food or drink for 2 hours before donating saliva. Saliva was directly spat into a saliva collection tube, 5 ml per person, and mixed. The mixture was centrifuged at 4500 rpm for 10 minutes, and the supernatant was collected, aliquoted, and stored at -80°C for subsequent experimental studies.\n(§2) Lysate observation group: In a 10 ml sample vial, 100 µl of saliva was added first, followed by the separate addition of ET-22 viable bacteria (1.0×10^9 CFU/ml), ET-22 heat-inactivated bacterial cells (obtained by inactivating viable bacteria at 1.0×10^9 CFU/ml), and lysate (obtained by inactivating and then filtering viable bacteria at 1.0×10^9 CFU/ml), each at 100µl. Then, 1.8 ml of SHI medium was added. After filling with nitrogen, anaerobic cultivation was performed for 10 hours. Then, the obtained culture was placed in a 60°C water bath for 30-min incubation. VSC concentration was measured using the in vitro Halimeter method.\n(§3) Group of two nucleotides: In a 10 ml sample vial, 100 µl of saliva was added first, followed by the separate addition of ET-22 viable bacteria (1.0×10^9 CFU/ml), ET-22 heat-inactivated bacterial cells (obtained by inactivating viable bacteria at 1.0×10^9 CFU/ml), NAD, and FAD (500 µg/ml, 100 µg/ml, 10 µg/ml), each at 100µl. Then, 1.8 ml of SHI medium was added. After filling with nitrogen, anaerobic cultivation was performed for 10 hours. Then, the obtained culture was placed in a 60°C water bath for 30-min incubation. VSC concentration was measured using the in vitro Halimeter method.\nas §3, with “five organic acids:” for “two nucleotides:”, “heat-inactivating” for “inactivating”, “CFU/ml),” for “CFU/ml), NAD,”, “five organic acid components” for “FAD”\nas §3, with “Observation group” for “Group”, “four polypeptides:” for “two nucleotides:”, “heat-inactivating” for “inactivating”, “CFU/ml),” for “CFU/ml), NAD,”, “components of four polypeptides” for “FAD”\nas §2, with “Peptidoglycan” for “Lysate observation”, “peptidoglycan (peptidoglycan extracted from” for “lysate (obtained by inactivating and then filtering”, “CFU/ml).” for “CFU/ml), each at 100µl.”, “method. […]” for “method.”"}}}
{"smiles": "O=C(O)C(O)Cc1ccccc1", "note": "(stereo not drawn) [2-hydroxy-3-phenylpropionic acid]", "values": [{"measurement": "biofilm structure (SEM observation)", "setting": "biofilm", "value": "the number of bacterial cell layers decreases, and the biofilm becomes thinner"}, {"measurement": "VSC concentration", "setting": "VSC concentration; high concentration (500 µg/ml)", "value": "significantly lower than that in the control group"}, {"measurement": "VSC concentration", "setting": "VSC concentration; medium concentration (100 µg/ml)", "value": "significantly lower than that in the control group"}]}
